Where “and” joins values, the source holds several entries; their conditions need not be identical. Equal values may be shown once. Entries after “also recorded” stand apart in the source; their conditions may differ. Read-outs that look alike come from different tables or passages of the source.
Tests used:
panel of 68 receptors [1] = target: panel of 68 receptors (Homo sapiens, UniProt P25929); conditions: Neuropeptide Y Y1, hum, 10 μM
panel of 68 receptors [2] = target: panel of 68 receptors (Homo sapiens, UniProt P25021); conditions: Histamine H2, hum, 10 μM
Sequence of panel of 68 receptors (Homo sapiens, UniProt P25021) (P25021 whole entry): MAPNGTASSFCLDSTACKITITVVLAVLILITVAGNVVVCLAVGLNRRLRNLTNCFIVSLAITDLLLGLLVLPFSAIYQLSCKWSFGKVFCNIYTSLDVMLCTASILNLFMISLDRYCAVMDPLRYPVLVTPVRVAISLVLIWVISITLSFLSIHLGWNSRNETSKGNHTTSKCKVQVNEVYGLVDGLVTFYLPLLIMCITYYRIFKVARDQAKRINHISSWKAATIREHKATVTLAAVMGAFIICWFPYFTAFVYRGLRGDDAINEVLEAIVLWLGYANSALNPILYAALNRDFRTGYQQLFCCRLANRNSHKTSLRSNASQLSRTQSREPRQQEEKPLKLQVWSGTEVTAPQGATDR

panel of 68 receptors [3] = target: panel of 68 receptors (Homo sapiens, UniProt P07550); conditions: Adrenergic β2, hum, 10 μM
Sequence of panel of 68 receptors (Homo sapiens, UniProt P07550) (P07550 whole entry): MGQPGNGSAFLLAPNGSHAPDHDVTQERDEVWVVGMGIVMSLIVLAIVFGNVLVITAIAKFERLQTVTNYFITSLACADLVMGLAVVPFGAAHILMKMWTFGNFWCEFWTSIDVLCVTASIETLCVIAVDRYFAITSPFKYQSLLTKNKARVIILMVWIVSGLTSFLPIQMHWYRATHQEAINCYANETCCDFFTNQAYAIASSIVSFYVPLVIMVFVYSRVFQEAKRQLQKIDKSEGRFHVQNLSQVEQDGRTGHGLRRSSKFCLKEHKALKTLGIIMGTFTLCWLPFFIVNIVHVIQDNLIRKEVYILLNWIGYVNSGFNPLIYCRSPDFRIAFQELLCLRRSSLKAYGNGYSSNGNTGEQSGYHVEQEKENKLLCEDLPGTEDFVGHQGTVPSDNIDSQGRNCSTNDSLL

panel of 68 receptors [4] = target: panel of 68 receptors (Homo sapiens, UniProt P04150); conditions: Glucocorticoid, hum, 10 μM
Sequence of panel of 68 receptors (Homo sapiens, UniProt P04150) (P04150 whole entry): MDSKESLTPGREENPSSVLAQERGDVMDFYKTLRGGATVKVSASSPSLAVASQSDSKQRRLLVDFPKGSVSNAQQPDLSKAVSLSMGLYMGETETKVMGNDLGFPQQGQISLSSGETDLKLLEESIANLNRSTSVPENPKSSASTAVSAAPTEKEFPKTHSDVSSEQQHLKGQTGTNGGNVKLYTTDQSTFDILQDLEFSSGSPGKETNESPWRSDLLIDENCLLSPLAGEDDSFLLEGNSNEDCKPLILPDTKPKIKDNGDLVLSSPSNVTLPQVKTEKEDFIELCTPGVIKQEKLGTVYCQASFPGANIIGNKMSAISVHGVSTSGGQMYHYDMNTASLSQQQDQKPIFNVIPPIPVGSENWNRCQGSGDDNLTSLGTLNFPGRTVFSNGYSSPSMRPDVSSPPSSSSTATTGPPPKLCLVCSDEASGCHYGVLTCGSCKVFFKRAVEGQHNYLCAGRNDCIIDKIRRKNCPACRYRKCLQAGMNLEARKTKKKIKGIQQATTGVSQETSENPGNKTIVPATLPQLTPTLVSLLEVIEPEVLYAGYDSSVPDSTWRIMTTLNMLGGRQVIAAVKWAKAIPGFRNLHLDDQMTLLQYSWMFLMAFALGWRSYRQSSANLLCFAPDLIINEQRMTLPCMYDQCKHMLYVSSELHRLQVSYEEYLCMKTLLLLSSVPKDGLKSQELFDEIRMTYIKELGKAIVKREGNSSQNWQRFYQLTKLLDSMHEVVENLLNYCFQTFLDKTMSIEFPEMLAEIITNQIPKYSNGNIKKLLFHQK

panel of 68 receptors [5] = target: panel of 68 receptors (Rattus norvegicus, UniProt P43140); conditions: Adrenergic α1A, rat, 10 μM
Sequence of panel of 68 receptors (Rattus norvegicus, UniProt P43140) (P43140 whole entry): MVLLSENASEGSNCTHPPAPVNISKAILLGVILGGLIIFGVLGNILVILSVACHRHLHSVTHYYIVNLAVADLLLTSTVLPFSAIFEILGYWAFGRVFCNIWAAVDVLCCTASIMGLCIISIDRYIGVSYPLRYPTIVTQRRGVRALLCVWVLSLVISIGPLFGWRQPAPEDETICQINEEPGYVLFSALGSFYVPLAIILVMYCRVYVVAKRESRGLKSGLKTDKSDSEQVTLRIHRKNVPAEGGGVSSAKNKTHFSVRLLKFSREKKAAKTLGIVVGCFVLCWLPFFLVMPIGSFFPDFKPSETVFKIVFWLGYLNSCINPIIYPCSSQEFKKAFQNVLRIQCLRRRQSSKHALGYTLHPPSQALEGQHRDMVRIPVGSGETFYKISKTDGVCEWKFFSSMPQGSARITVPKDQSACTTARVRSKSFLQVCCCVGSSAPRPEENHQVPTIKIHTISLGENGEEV

panel of 68 receptors [6] = target: panel of 68 receptors (Homo sapiens, UniProt P24530); conditions: Endothelin ETB, hum, 10 μM
Sequence of panel of 68 receptors (Homo sapiens, UniProt P24530) (P24530 27-442): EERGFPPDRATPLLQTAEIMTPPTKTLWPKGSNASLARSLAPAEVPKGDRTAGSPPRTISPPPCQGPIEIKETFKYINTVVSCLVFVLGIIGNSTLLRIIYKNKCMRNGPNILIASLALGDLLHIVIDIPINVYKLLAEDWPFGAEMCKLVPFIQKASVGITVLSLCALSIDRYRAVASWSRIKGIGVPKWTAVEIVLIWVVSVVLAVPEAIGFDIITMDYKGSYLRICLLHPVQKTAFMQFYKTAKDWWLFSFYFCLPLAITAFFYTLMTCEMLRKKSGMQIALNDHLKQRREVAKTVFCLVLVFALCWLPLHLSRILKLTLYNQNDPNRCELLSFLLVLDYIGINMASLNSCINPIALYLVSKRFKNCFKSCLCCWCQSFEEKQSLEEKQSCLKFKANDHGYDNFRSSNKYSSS

panel of 68 receptors [7] = target: panel of 68 receptors (Homo sapiens, UniProt P46098); conditions: Serotonin (5-Hydroxytryptamine) 5-HT3, hum, 10 μM
Sequence of panel of 68 receptors (Homo sapiens, UniProt P46098) (P46098 24-478): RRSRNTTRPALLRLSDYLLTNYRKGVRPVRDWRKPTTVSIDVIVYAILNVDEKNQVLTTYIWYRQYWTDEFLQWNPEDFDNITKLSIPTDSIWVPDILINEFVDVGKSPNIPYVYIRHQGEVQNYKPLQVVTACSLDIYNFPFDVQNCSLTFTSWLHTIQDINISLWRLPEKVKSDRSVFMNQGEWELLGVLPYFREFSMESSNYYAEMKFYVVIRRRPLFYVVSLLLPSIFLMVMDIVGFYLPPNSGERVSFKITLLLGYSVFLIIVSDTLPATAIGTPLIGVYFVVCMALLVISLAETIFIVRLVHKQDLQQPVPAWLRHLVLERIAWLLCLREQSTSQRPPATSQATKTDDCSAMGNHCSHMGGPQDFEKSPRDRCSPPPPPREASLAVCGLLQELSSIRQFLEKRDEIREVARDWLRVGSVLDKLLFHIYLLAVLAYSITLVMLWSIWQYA

panel of 68 receptors [8] = target: panel of 68 receptors (Homo sapiens, UniProt Q9Y5N1); conditions: Histamine H3, hum, 10 μM
Sequence of panel of 68 receptors (Homo sapiens, UniProt Q9Y5N1) (Q9Y5N1 whole entry): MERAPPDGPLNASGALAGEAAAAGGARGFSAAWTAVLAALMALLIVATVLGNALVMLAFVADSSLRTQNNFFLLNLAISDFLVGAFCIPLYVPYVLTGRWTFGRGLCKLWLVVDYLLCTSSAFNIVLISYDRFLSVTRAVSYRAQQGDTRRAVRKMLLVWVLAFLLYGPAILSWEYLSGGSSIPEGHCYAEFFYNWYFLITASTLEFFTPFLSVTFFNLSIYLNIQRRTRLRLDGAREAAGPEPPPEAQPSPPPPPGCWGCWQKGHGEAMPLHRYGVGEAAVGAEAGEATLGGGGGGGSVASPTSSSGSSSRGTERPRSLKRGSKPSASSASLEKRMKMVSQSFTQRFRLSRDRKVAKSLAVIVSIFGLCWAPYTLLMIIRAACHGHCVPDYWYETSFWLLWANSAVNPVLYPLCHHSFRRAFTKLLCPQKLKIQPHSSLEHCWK

[9] = Solubility in PBS and in assay media; type: physicochemical
Protocol: Solubility was measured in phosphate buffered saline (PBS) at room temperature (23° C.). PBS by definition is 137 mM NaCl, 2.7 mM KCl, 10 mM sodium phosphate dibasic, 2 mM potassium phosphate monobasic and a pH of 7.4 (34). […] Solubility was also assessed in primary assay media (Luria-Bertani Broth). […] The solubility in PBS buffer is good, and only slightly less than in assay media, and, in any case, the solubility for the probe is well above its activity in the K1 and T7 assays.

PAMPA permeability = type: in vitro ADME; conditions: read-out: PAMPA Pe
UPEC = experiment: Emergence of spontaneous resistance on exposure to probe; type: cell-based, Escherichia coli; conditions: range of concentrations
Description: The probe described herein is entirely novel with the only precedent being the structurally dissimilar molecule 2-(4-phenylphenyl)benzo[g]quinoline-4-carboxylic acid that we previously described in proof-of-concept studies (33). The probe described herein is uniquely poised for development as an infection-specific prevention and treatment therapeutic that enhances natural immune clearance of an infection, namely UTI. […] However, the probe has no effect on in vitro growth and viability of UPEC in the absence of immune factors. […] Furthermore, this probe would be expected to act upon traditional antibiotic resistant strains of E. coli.

capsule genes of UPEC = experiment: Capsule gene transcript level after probe treatment; type: cell-based, Escherichia coli; conditions: UPEC treated with the probe
[10] = Aqueous stability over 48 hours; type: physicochemical; conditions: aqueous PBS and 50:50 aqueous PBS:acetonitrile, room temperature
Protocol: Aqueous stability for the probe was assessed using two solvent systems (100% aqueous PBS, and 50:50 aqueous PBS: acetonitrile). The probe stability was measured in aqueous PBS (no antioxidants or other protectants, DMSO concentration below 0.1%, room temperature) and the results are reported as circles in the graph in FIG. 4. The probe stability was also measured in 50:50 aqueous PBS and acetonitrile and the results are reported as squares in the graph in FIG. 4. Stability data in each case is depicted as the loss of compound with time over 48 hours with a minimum of six time points and providing the percent compound remaining after 48 hours.

Plasma stability, human = type: in vitro ADME; conditions: 1:1 Plasma:PBS, 37° C.
E. coli UTI89 = experiment: Murine UPEC sepsis model; type: in vivo
Protocol: Murine UPEC sepsis model and treatment with DU011. Groups of five 6-7 week old C57BL/6NCr female mice (purchased from Frederick National Laboratory for Cancer Research) were injected subcutaneously twice daily with 100 μL of 1% DMSO (vehicle control) or DU011 (1 mg/ml) starting 12 hrs prior to the intra peritoneal infection. Weights were recorded twice daily to monitor health of the animals and tolerance to the compound. Mice were challenged by intraperitoneal injection with 10^8 CFU of the indicated E. coli UTI89 in 100 μL of PBS. Briefly, cultures were prepared by diluting overnight cultures (18 hrs) 1:100 into 3 mL of LB supplemented with 1% DMSO final or 100 μM DU011 (1% DMSO final). Shaken cultures were grown at 37° C. for 6 hours to an OD600 of 1.2, and then cells were pelleted and resuspended in 1 mL of PBS. Absorbance was adjusted to OD600 of 0.8 in PBS, and the cultures were then diluted 1:10 in sterile PBS Animals were also given an intraperitoneal dose of 1% DMSO or DU011, in a site different than the administration of bacteria, to ensure sufficient systemic delivery of drug. Animal survival was assessed after 12 hours. Surviving mice were re-dosed according to the treatment groups and continued to be monitored. The experiment was concluded 48 hours post infection. The entire experiment was repeated with similar results.
Throughout each experiment, animals were monitored each 6 hours from the time of infection until conclusion for serious morbidity, including ruffled fur, decreased activity, slowed respirations, and ill appearance. Animals were provided gel packs for easily accessible additional hydration throughout the experiments. When a moribund state was suspected or anticipated by these criteria, animals were immediately euthanized to minimize potential pain and/or suffering. Of the total animals with an outcome categorized as death, the following numbers were euthanized for terminal morbidity prior to septic death (euthanized/total deaths): 3/10, no prior treatment; 3/5 prior chemical treatment of bacteria alone; 0/2 prior chemical treatment of mice alone. Euthanasia for all animals was through complete respiratory cessation using the inhaled anesthetic isoflurane followed by secondary assurance of death using bilateral thoracotomy. All animal experiments were conducted with prior approval from the Institutional Animal Care and Use Committee of Duke University.

[11] = pre-treatment of bacteria without pretreatment of the mice

Sequence of panel of 68 receptors (Homo sapiens, UniProt P25929) (P25929 whole entry): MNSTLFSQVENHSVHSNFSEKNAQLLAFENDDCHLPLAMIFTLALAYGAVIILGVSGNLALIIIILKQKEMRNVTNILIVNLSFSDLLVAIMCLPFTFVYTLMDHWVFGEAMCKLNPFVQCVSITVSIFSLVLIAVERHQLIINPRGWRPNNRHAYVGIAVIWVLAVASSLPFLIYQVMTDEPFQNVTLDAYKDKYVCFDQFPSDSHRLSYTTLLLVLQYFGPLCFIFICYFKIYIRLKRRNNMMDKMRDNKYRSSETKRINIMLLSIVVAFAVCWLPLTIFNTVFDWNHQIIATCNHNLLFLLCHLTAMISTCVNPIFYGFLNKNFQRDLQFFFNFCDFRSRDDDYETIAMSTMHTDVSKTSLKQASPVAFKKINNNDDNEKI

CCOc1ccc(-c2cc(NC(=O)c3c(F)cccc3F)c(C(=O)O)s2)cc1 [KUC107784N-02]
% Inh. (panel of 68 receptors [1]): 5%
% Inh. (panel of 68 receptors [2]): 2%
% Inh. (panel of 68 receptors [3]): 3%
% Inh. (panel of 68 receptors [4]): −2%
% Inh. (panel of 68 receptors [5]): 16%
% Inh. (panel of 68 receptors [6]): 3%
% Inh. (panel of 68 receptors [7]): −11%
% Inh. (panel of 68 receptors [8]): 14%

CCOc1ccc(-c2cc(NC(=O)c3c(F)cccc3F)c(C(=O)O)s2)cc1 [ML317, 3-(2,6-difluorobenzamido)-5-(4-ethoxyphenyl)thiophene-2-carboxylic acid]
solubility ([9]; Luria-Bertani broth (primary assay media), plasma or biological fluid, Luria-Bertani broth, read-out: Assay Media Solubility): 68 µg/mL and 169 µM
solubility ([9]; phosphate buffered saline (PBS), 23 °C, pH 7.4, aqueous buffer, 1x PBS, pH 7.4, room temperature, read-out: Aqueous Solubility): 92.6 µg/mL and 230 µM
Papp (PAMPA permeability; Donor pH 5.0, Acceptor pH 7.4, RT): 14 ×10⁻⁶ cm/s
Papp (PAMPA permeability; Donor pH 6.2, Acceptor pH 7.4, RT): 209 ×10⁻⁶ cm/s
Papp (PAMPA permeability; pH 7.4, Donor pH 7.4, Acceptor pH 7.4, RT): 52 ×10⁻⁶ cm/s
Emergence of spontaneous resistance in the laboratory (UPEC): has not resulted in the emergence of spontaneous resistance
Transcript for the capsule genes from each of the two major promoters (capsule genes of UPEC): significantly reduced transcript
Aqueous stability [10]: stable
Plasma Stability, % remaining at 3 hr (Plasma stability, human): 95.3 % remaining
Tolerability in mice (E. coli UTI89; 100 μL of 1 mg/ml subcutaneously twice daily, listed as DU011): without evident side effects; also recorded: no detectable adverse effects
Body weight (E. coli UTI89; [11]): ongoing weight loss
Survival (E. coli UTI89; [11]): 50%
Body weight (E. coli UTI89; pretreatment of the bacteria and mice with DU011): recovery of pre-infection weights
Survival (E. coli UTI89; pretreatment of the bacteria and mice with DU011, 10^8 CFU UTI89 intraperitoneal, 48 hrs): 100%
Body weight (E. coli UTI89; subcutaneous DU011 and untreated UTI89): stabilization of weights
Survival (E. coli UTI89; subcutaneous DU011 and untreated UTI89, 48 hrs): 80%

Source: patent US9688653B2, “Ethoxyphenyl thienyl compounds and methods for the treatment of bacterial infections” (Duke University, priority 2013, dated 2017)
